Where two headings read alike, the source gives them in different places.

This is an account of results in US10669272B2, “Substituted naphthyridinone compounds useful as T cell activators” (BRISTOL-MYERS SQUIBB COMPANY, priority 2018, dated 2020).

The target of one assay is T1, human DGKα (Homo sapiens, UniProt P23743).
T1 construct: TVMV protease cleavage site (C); Hexa-His (C); made in house; host or cells: Sf9 insect cells (baculovirus, Bac-to-Bac)
In words: DGKα LIPGLO assay (extruded liposome substrate), in vitro DGK inhibition. Format: biochemical. The conditions noted are these: liposome (LIPGLO) assay; read-out: DGKa LIPGLO IC50.

Another assay has as its target T2, human DGKζ (Homo sapiens, UniProt Q13574).
T2 construct: TVMV protease cleavage site (C); Hexa-His (C); made in house; host or cells: Sf9 insect cells (baculovirus, Bac-to-Bac)
Description: DGKζ LIPGLO assay (extruded liposome substrate), in vitro DGK inhibition. It counts as biochemical. Conditions: liposome (LIPGLO) assay; read-out: DGKz LIPGLO IC50.

In a further assay the test system is naïve human CD8 T cells. In words: Human CD8 T cells IFN-γ assay.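 Note: Naïve human CD8 T cells stimulated with plate-bound anti-CD3 and soluble anti-CD28, IFN-γ in supernatant quantified by AlphaLISA and converted to pg/mL.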 Format: cell-based. Conditions: normalized to 3 μM reference compound with anti-CD3 plus anti-CD28 as 100% activation, read-out: HuCD8 INFG Normalized EC50.
The test system of a further assay is Human venous whole blood. In words: Human whole blood IFN-γ assay.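 Note: blood from healthy donors exposed to compound for 1 h before stimulation with anti-CD3 and anti-CD28 at 1 µg/mL each, IFN-γ quantified in supernatant by AlphaLISA.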 It counts as cell-based. The conditions noted are these: human whole blood, normalized to 3 μM reference compound with anti-CD3 plus anti-CD28 as 100% activation, read-out: INFg Whole Blood Normalized Agonist EC50.

T2 sequence (Q13574 with tags, fused parts or gaps isoform Q13574-4): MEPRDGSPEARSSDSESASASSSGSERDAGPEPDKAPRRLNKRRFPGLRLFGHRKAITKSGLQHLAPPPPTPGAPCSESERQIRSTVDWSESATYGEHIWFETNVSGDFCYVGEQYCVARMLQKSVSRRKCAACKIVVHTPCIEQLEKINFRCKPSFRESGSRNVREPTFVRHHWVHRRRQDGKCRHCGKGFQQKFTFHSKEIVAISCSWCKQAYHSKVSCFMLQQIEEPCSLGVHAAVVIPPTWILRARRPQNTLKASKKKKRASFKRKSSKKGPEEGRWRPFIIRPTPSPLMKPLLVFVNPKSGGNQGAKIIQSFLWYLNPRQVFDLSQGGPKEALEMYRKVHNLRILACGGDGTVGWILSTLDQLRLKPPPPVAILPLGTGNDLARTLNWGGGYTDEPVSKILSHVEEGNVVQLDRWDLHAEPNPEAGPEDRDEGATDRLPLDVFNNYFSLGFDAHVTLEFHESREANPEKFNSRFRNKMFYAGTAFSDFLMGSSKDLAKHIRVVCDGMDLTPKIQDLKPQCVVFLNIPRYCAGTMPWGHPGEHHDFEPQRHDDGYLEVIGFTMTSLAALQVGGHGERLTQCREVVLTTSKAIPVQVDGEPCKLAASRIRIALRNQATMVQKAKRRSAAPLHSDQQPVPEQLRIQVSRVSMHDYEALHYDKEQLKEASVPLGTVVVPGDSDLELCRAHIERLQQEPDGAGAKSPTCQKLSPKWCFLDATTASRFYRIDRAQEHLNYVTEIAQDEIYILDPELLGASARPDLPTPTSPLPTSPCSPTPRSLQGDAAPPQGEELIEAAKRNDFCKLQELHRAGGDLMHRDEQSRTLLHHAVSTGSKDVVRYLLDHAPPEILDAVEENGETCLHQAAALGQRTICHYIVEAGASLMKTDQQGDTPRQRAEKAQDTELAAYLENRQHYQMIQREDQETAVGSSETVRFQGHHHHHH
T1 sequence (P23743 with tags, fused parts or gaps): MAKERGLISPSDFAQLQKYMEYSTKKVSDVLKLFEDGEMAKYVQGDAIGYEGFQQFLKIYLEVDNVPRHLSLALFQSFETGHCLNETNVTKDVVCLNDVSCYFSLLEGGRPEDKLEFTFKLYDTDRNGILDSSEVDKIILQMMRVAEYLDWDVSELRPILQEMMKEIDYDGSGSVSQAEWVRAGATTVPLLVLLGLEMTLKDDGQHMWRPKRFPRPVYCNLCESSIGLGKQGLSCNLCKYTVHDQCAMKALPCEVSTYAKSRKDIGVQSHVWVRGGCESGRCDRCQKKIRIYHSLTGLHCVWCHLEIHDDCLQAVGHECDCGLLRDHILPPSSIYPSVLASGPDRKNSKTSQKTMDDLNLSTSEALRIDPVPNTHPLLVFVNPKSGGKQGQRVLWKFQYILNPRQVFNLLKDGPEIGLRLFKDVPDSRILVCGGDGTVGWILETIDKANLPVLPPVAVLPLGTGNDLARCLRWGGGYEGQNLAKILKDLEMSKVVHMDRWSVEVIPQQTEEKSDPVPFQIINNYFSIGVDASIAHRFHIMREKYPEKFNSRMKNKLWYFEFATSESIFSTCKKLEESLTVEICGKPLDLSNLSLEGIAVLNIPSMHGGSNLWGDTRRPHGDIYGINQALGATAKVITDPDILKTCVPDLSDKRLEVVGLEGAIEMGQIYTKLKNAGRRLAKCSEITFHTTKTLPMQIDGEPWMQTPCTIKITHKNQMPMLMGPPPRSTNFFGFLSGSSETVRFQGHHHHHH
Description for Human venous whole blood: Human Whole Blood IFN-γ Assay
Human venous whole blood (22.5 μL per well), obtained from healthy donors, was pre-treated with compounds for one hour at 37° C. in a humidified 95% air/5% CO2 incubator. The blood was stimulated with 2.5 μL anti-human CD3 and anti-CD28 mAb at a final concentration of 1 μg/mL each for 24 hours at 37° C. IFN-γ in the supernatants was measured using AlphLISA kit (Cat # AL217).

`C[C@@H]1CN(c2cc(=O)n(C)c3ccc(C#N)nc23)[C@@H](C)CN1Cc1cc(F)cc(F)c1` [Example 290, 8-[(2S,5R)-4-[(3,5-difluorophenyl)methyl]-2,5-dimethylpiperazin-1-yl]-5-methyl-6-oxo-5,6-dihydro-1,5-naphthyridine-2-carbonitrile]: the figures for the IC50 at human DGKα and on human DGKζ were 1700 nM and 3500 nM, respectively. The EC50 (usually the concentration giving half of the maximal effect) in the assay on naïve human CD8 T cells (Homo sapiens, T-cell, 20 h) was 2000 nM; with Human venous whole blood (Homo sapiens, 24 h), 7900 nM.
Regarding `Cc1ccc(C(c2cccc(Cl)c2)N2C[C@H](C)N(c3cc(=O)n(C)c4ccc(C#N)nc34)C[C@H]2C)nc1` (single isomer, unassigned) [Example 369], the IC50 (as a rule, the concentration that inhibits the measured activity by half) turned out to be 2800 nM on human DGKα and 1400 nM at human DGKζ. Moreover, the EC50 in the assay on naïve human CD8 T cells is 150 nM; in the assay with Human venous whole blood (Homo sapiens, 24 h) it was 480 nM.
Regarding `Cc1ccnc(C(c2ccc(F)cc2)N2C[C@H](C)N(c3cc(=O)n(C)c4ccc(C#N)nc34)C[C@H]2C)c1` (single isomer, unassigned) [Example 455], the IC50 at human DGKα is 1000 nM; at human DGKζ, 2400 nM. For the same compound, the EC50 in the assay on naïve human CD8 T cells (Homo sapiens, T-cell, 20 h) amounted to 97 nM; in the assay with Human venous whole blood (Homo sapiens, 24 h), 740 nM.
For the compound `COc1ccc2c(n1)c(N1C[C@@H](C)N(C(c3ccc(F)cc3)c3ccc(F)cc3)C[C@@H]1C)cc(=O)n2C` [Example 241], the IC50 on human DGKα came out at 8300 nM; at human DGKζ, 17000 nM. The EC50 in the assay with naïve human CD8 T cells (Homo sapiens, T-cell, 20 h) turned out to be 1600 nM; in the assay with Human venous whole blood (Homo sapiens, 24 h), 16000 nM.
Turning to `CC[C@H]1CN(C(c2ccc(F)cc2)c2ncccc2F)[C@H](CC)CN1c1cc(=O)n(C)c2ccc(C#N)nc12` (single isomer, unassigned) [Example 1037], the IC50 at human DGKα came out at 49 nM; at human DGKζ it was 280 nM. For the same compound, the EC50 is 14 nM in the assay on naïve human CD8 T cells (Homo sapiens, T-cell, 20 h) and 130 nM in the assay on Human venous whole blood.
`C[C@@H]1CN(c2cc(=O)n(C)c3ccc(C#N)nc23)[C@@H](C)CN1C(c1cccc(F)c1)c1cccc(F)c1` [Example 270, 8-[(2S,5R)-4-[bis(3-fluorophenyl)methyl]-2,5-dimethylpiperazin-1-yl]-5-methyl-6-oxo-5,6-dihydro-1,5-naphthyridine-2-carbonitrile]: the IC50 is 3400 nM at human DGKα and 570 nM at human DGKζ. Also, the EC50 with naïve human CD8 T cells (Homo sapiens, T-cell, 20 h) worked out at 62 nM; in the assay on Human venous whole blood (Homo sapiens, 24 h), 2000 nM.
For `CC[C@@H]1CN(c2cc(=O)n(C)c3ccc(C#N)nc23)[C@@H](C)CN1C(c1ccc(F)cc1)c1ccc(Cl)cc1` (some centres unmarked) [Example 1100], the IC50 on human DGKα stood at 390 nM; at human DGKζ, 370 nM. For the same compound, the EC50 in the assay on naïve human CD8 T cells (Homo sapiens, T-cell, 20 h) was determined as 4.6 nM; in the assay on Human venous whole blood (Homo sapiens, 24 h) it was 120 nM.
Regarding `Cc1ccc(C(c2cccc(F)c2)N2C[C@H](C)N(c3cc(=O)n(C)c4ccc(C#N)nc34)C[C@H]2C)nc1` (single isomer, unassigned) [Example 215], the figures for the concentration for half-maximal inhibition (IC50) on human DGKα and at human DGKζ were 660 nM and 530 nM, respectively. Moreover, the EC50 came out at 33 nM with naïve human CD8 T cells and 2100 nM with Human venous whole blood.
`CC[C@H]1CN(C(c2ccc(Cl)cc2)c2ccc(F)cn2)[C@H](CC)CN1c1cc(=O)n(C)c2ccc(C#N)nc12` (single isomer, unassigned) [Example 1033]: the figures for the IC50 on human DGKα and at human DGKζ were 98 nM and 59 nM, respectively. Further, the EC50 in the assay with naïve human CD8 T cells turned out to be 190 nM; in the assay with Human venous whole blood (Homo sapiens, 24 h), 120 nM.
In the case of `CC[C@@H]1CN(c2cc(=O)n(C)c3ccc(C#N)nc23)[C@@H](C)CN1C(c1ccc(F)cc1)c1ccc(C#N)cc1` (single isomer, unassigned) [Example 1102], the IC50 at human DGKα came out at 640 nM; at human DGKζ, 1400 nM. Besides, the EC50 amounted to 31 nM with naïve human CD8 T cells (Homo sapiens, T-cell, 20 h) and 220 nM in the assay on Human venous whole blood (Homo sapiens, 24 h).
Regarding `C[C@@H]1CN(c2cc(=O)n(C)c3ccc(C#N)nc23)[C@@H](C)CN1Cc1c(Cl)cccc1C#N` [Example 260, 8-[(2S,5R)-4-[(2-chloro-6-cyanophenyl)methyl]-2,5-dimethylpiperazin-1-yl]-5-methyl-6-oxo-5,6-dihydro-1,5-naphthyridine-2-carbonitrile], the concentration for half-maximal inhibition (IC50) on human DGKα came out at 3800 nM; on human DGKζ it was 1100 nM. Besides, the EC50 in the assay with naïve human CD8 T cells (Homo sapiens, T-cell, 20 h) was determined as 900 nM; in the assay on Human venous whole blood (Homo sapiens, 24 h), 4400 nM.
As to `COC[C@@H]1CN(c2cc(=O)n(C)c3ccc(C#N)nc23)[C@@H](C)CN1C(c1ccc(F)cc1)c1ccc(F)cc1` [Example 1155, 8-((2S,5S)-4-(bis(4-fluorophenyl)methyl)-5-(methoxymethyl)-2-methylpiperazin-1-yl)-5-methyl-6-oxo-5,6-dihydro-1,5-naphthyridine-2-carbonitrile], the IC50 on human DGKα was 1800 nM; at human DGKζ, 660 nM. Moreover, the EC50 with naïve human CD8 T cells (Homo sapiens, T-cell, 20 h) worked out at 3.5 nM; in the assay with Human venous whole blood (Homo sapiens, 24 h), 860 nM.
`C[C@@H]1CN(c2cc(=O)n(C)c3ccc(C#N)nc23)[C@@H](C)CN1Cc1ccccc1O` [Example 245, 8-[(2S,5R)-4-[(2-hydroxyphenyl)methyl]-2,5-dimethylpiperazin-1-yl]-5-methyl-6-oxo-5,6-dihydro-1,5-naphthyridine-2-carbonitrile]: the half-inhibitory concentration (IC50) is 8.6 nM on human DGKα and 1100 nM on human DGKζ. Further, the EC50 in the assay with naïve human CD8 T cells (Homo sapiens, T-cell, 20 h) turned out to be 750 nM; in the assay on Human venous whole blood (Homo sapiens, 24 h), 5200 nM.
As to `C[C@@H]1CN(c2cc(=O)n(C)c3ccc(C#N)nc23)[C@@H](C)CN1Cc1ccccc1F` [Example 287, 8-[(2S,5R)-4-[(2-fluorophenyl)methyl]-2,5-dimethylpiperazin-1-yl]-5-methyl-6-oxo-5,6-dihydro-1,5-naphthyridine-2-carbonitrile], the IC50 turned out to be 34 nM at human DGKα and 1600 nM at human DGKζ. In addition, the EC50 with naïve human CD8 T cells (Homo sapiens, T-cell, 20 h) is 12000 nM; in the assay on Human venous whole blood (Homo sapiens, 24 h) it was 7100 nM.
With `CCc1cc(F)ccc1C(c1ccc(Cl)cc1)N1C[C@H](C)N(c2cc(=O)n(C)c3ccc(OC)nc23)C[C@H]1C` (single isomer, unassigned) [Example 232], the IC50 on human DGKα was 240000 nM; at human DGKζ it was 1700 nM. Besides, the EC50 turned out to be 10000 nM in the assay on naïve human CD8 T cells and 20000 nM in the assay with Human venous whole blood.
With `C[C@@H]1CN(c2cc(=O)n(C)c3ccc(C#N)nc23)[C@@H](C)CN1C(c1ccc(OC(F)(F)F)cc1)c1cccc(F)n1` (single isomer, unassigned) [Example 367], the concentration for half-maximal inhibition (IC50) at human DGKα was 1300 nM; on human DGKζ, 2700 nM. In addition, the EC50 in the assay on naïve human CD8 T cells (Homo sapiens, T-cell, 20 h) is 13 nM; with Human venous whole blood (Homo sapiens, 24 h), 460 nM.
`CCc1ccccc1C(c1ccc(F)cc1)N1C[C@H](C)N(c2cc(=O)n(C)c3ccc(OC)nc23)C[C@H]1C` (single isomer, unassigned) [Example 236]: the results for the IC50 at human DGKα and at human DGKζ were 240000 nM and 11000 nM, respectively. Moreover, the EC50 in the assay with naïve human CD8 T cells stood at 10000 nM; in the assay on Human venous whole blood it was 20000 nM.
Consider `CCc1ccccc1C(c1ccc(F)cc1)N1C[C@H](C)N(c2cc(=O)n(C)c3ccc(OC)nc23)C[C@H]1C` (single isomer, unassigned) [Example 235], for which the figures for the IC50 at human DGKα and on human DGKζ were 81000 nM and 4800 nM, respectively. The EC50 in the assay with naïve human CD8 T cells was determined as 1500 nM; with Human venous whole blood (Homo sapiens, 24 h), 20000 nM.
Regarding `C[C@@H]1CN(c2cc(=O)n(C)c3ccc(C#N)nc23)[C@@H](C)CN1Cc1c(F)cccc1C#N` [Example 269, 8-[(2S,5R)-4-[(2-cyano-6-fluorophenyl)methyl]-2,5-dimethylpiperazin-1-yl]-5-methyl-6-oxo-5,6-dihydro-1,5-naphthyridine-2-carbonitrile], the results for the IC50 at human DGKα and on human DGKζ were 78000 nM and 240000 nM, respectively. Moreover, the EC50 in the assay on naïve human CD8 T cells (Homo sapiens, T-cell, 20 h) was 1200 nM; in the assay on Human venous whole blood (Homo sapiens, 24 h), 8800 nM.
With `C[C@@H]1CN(c2cc(=O)n(C)c3ccc(C#N)nc23)[C@@H](C)CN1Cc1ccc(C#N)cc1F` [Example 253, 8-[(2S,5R)-4-[(4-cyano-2-fluorophenyl)methyl]-2,5-dimethylpiperazin-1-yl]-5-methyl-6-oxo-5,6-dihydro-1,5-naphthyridine-2-carbonitrile], the IC50 at human DGKα came out at 200 nM; on human DGKζ, 690 nM. Further, the concentration giving a half-maximal response (EC50) in the assay on naïve human CD8 T cells (Homo sapiens, T-cell, 20 h) is 87 nM; in the assay on Human venous whole blood (Homo sapiens, 24 h) it was 3000 nM.
`C[C@@H]1CN(c2cc(=O)n(C)c3ccc(C#N)nc23)[C@@H](C)CN1C(c1ccc(F)cc1)c1ccc(Cl)cn1` (single isomer, unassigned) [Example 211]: the IC50 at human DGKα stood at 39 nM; on human DGKζ, 150 nM. Moreover, the EC50 in the assay on naïve human CD8 T cells (Homo sapiens, T-cell, 20 h) came to 29 nM; with Human venous whole blood (Homo sapiens, 24 h) it was 800 nM.
On to `C[C@@H]1CN(c2cc(=O)n(C)c3ccc(C#N)nc23)[C@@H](C)CN1Cc1ccccc1` [Example 264, 8-[(2S,5R)-4-benzyl-2,5-dimethylpiperazin-1-yl]-5-methyl-6-oxo-5,6-dihydro-1,5-naphthyridine-2-carbonitrile], for which the results for the half-inhibitory concentration (IC50) on human DGKα and on human DGKζ were 35 nM and 3000 nM, respectively. Moreover, the EC50 in the assay on naïve human CD8 T cells (Homo sapiens, T-cell, 20 h) was determined as 260 nM; in the assay on Human venous whole blood (Homo sapiens, 24 h), 11000 nM.
With `C[C@@H]1CN(c2cc(=O)n(C)c3ccc(C#N)nc23)[C@@H](C)CN1C(c1ccc(Cl)cc1)c1cccc2c1OCCO2` (stereo partly drawn) [Example 447, 8-((2S,5R)-4-((4-chlorophenyl)(2,3-dihydrobenzo[b][1,4]dioxin-5-yl)methyl)-2,5-dimethylpiperazin-1-yl)-5-methyl-6-oxo-5,6-dihydro-1,5-naphthyridine-2-carbonitrile], the figures for the IC50 on human DGKα and at human DGKζ were 7700 nM and 290 nM, respectively. The EC50 came out at 50 nM in the assay on naïve human CD8 T cells (Homo sapiens, T-cell, 20 h) and 600 nM in the assay with Human venous whole blood (Homo sapiens, 24 h).
